For the assay, the system named is Felis catus. Nature of the assay: Increase in cerebral blood flow in anesthetized cat suprasylvian gyrus at 0.3 mg/kg, iv. The class given is functional, organism-based. Also noted: dose 0.3 mg/kg.

Calls of active or inactive are those of the source. The rule behind the calls is not given here.

In the case of `C[n+]1c2n(c(=O)c3ccccc31)CCc1c-2[nH]c2ccccc12`, the outcome was Active.

The values are drawn from ChEMBL document CHEMBL1149049, “Increased feline cerebral blood flow induced by dehydroevodiamine hydrochloride from Evodia rutaecarpa” (J Nat Prod, 1994).
